{
  "source": "ChEMBL document CHEMBL4196052",
  "about": "“Rational modifications on a benzylidene-acrylohydrazide antiviral scaffold, synthesis and evaluation of bioactivity against Chikungunya virus” (Eur J Med Chem, 2018)",
  "key": {"Chikungunya virus [1]": {"test_system": "Chikungunya virus", "assay": "Antiviral activity against Chikungunya virus Indian Ocean strain 899 infected in African green monkey Vero cells assessed as inhibition of viral-induced cytopathic effect by measuring concentration required for maximum activity measured on day 5 post infection by MTS/PMS assay", "format": "functional, Indian Ocean 899"}, "Chikungunya virus [2]": {"test_system": "Chikungunya virus", "assay": "Antiviral activity against Chikungunya virus Indian Ocean strain 899 infected in African green monkey Vero cells assessed as inhibition of viral-induced cytopathic effect measured on day 5 post infection by MTS/PMS assay", "format": "functional, organism-based, Indian Ocean 899", "conditions": "for EC50 / EC90: Chikungunya virus, Indian Ocean 899, Vero, 120 h"}, "[3]": {"assay": "Selectivity index, ratio of CC50 for African green monkey Vero cells to EC50 for Chikungunya virus Indian Ocean strain 899 infected in African green monkey Vero cells", "format": "toxicity", "conditions": "read-out: Ratio CC50/EC50"}, "[4]": {"assay": "Cytotoxicity against African green monkey Vero cells by MTS/PMS assay", "format": "cell-based", "conditions": "chlorocebus sabaeus"}},
  "data": [
    {"smiles": "CCOc1ccc(-c2nnc(CCc3ccc(C(C)(C)C)cc3)o2)cc1OCC", "values": [
      {"measurement": "Activity", "setting": "Chikungunya virus [1]", "result": 13.5, "unit": "µM"},
      {"measurement": "Imax", "setting": "Chikungunya virus [2]", "result": 61, "unit": "%"},
      {"measurement": "EC50", "setting": "Chikungunya virus [2]", "result": 12.4, "unit": "µM"},
      {"measurement": "selectivity ratio", "setting": "[3]", "result": 1.2},
      {"measurement": "CC50", "setting": "[4]", "result": 15.5, "unit": "µM"}
    ]},
    {"smiles": "CCOc1ccc(/C=N/NC(=S)NCCc2ccccc2)cc1OCC", "values": [
      {"measurement": "Activity", "setting": "Chikungunya virus [1]", "result": 9.3, "unit": "µM"},
      {"measurement": "Imax", "setting": "Chikungunya virus [2]", "result": 90, "unit": "%"},
      {"measurement": "EC50", "setting": "Chikungunya virus [2]", "result": 5.9, "unit": "µM"},
      {"measurement": "EC90", "setting": "Chikungunya virus [2]", "result": 9.8, "unit": "µM"},
      {"measurement": "selectivity ratio", "setting": "[3]", "result": 18},
      {"measurement": "CC50", "setting": "[4]", "result": 109, "unit": "µM"}
    ]},
    {"smiles": "Cc1ccc(/C=N/NC(=O)/C=C/c2ccc(C(C)C)cc2)cc1", "values": [
      {"measurement": "Activity", "setting": "Chikungunya virus [1]", "result": 20, "unit": "µM"},
      {"measurement": "Imax", "setting": "Chikungunya virus [2]", "result": 50, "unit": "%"},
      {"measurement": "EC50", "setting": "Chikungunya virus [2]", "result": 25.9, "unit": "µM"},
      {"measurement": "selectivity ratio", "setting": "[3]", "result": 1},
      {"measurement": "CC50", "setting": "[4]", "result": 25, "unit": "µM"}
    ]},
    {"smiles": "CC(C)(C)c1ccc(/C=C/NC(=O)N/N=C/c2ccc(O)cc2)cc1", "values": [
      {"measurement": "Activity", "setting": "Chikungunya virus [1]", "result": 7.4, "unit": "µM"},
      {"measurement": "Imax", "setting": "Chikungunya virus [2]", "result": 89, "unit": "%"},
      {"measurement": "EC50", "setting": "Chikungunya virus [2]", "result": 5.6, "unit": "µM"},
      {"measurement": "EC90", "setting": "Chikungunya virus [2]", "result": 7.5, "unit": "µM"},
      {"measurement": "selectivity ratio", "setting": "[3]", "result": 1.9},
      {"measurement": "CC50", "setting": "[4]", "result": 10.4, "unit": "µM"}
    ]},
    {"smiles": "Oc1ccc(/C=N/NC(=S)NCCc2ccccc2)cc1", "values": [
      {"measurement": "Activity", "setting": "Chikungunya virus [1]", "result": 51, "unit": "µM"},
      {"measurement": "Imax", "setting": "Chikungunya virus [2]", "result": 67, "unit": "%"},
      {"measurement": "EC50", "setting": "Chikungunya virus [2]", "result": 48.3, "unit": "µM"},
      {"measurement": "selectivity ratio", "setting": "[3]", "result": 1.8},
      {"measurement": "CC50", "setting": "[4]", "result": 87.8, "unit": "µM"}
    ]},
    {"smiles": "C/C(=N\\NC(=S)NCCc1ccccc1)c1ccc(C2CCCCC2)cc1", "values": [
      {"measurement": "Activity", "setting": "Chikungunya virus [1]", "result": 6, "unit": "µM"},
      {"measurement": "Imax", "setting": "Chikungunya virus [2]", "result": 90, "unit": "%"},
      {"measurement": "EC50", "setting": "Chikungunya virus [2]", "result": 4.3, "unit": "µM"},
      {"measurement": "EC90", "setting": "Chikungunya virus [2]", "result": 5.9, "unit": "µM"},
      {"measurement": "selectivity ratio", "setting": "[3]", "result": 12.2},
      {"measurement": "CC50", "setting": "[4]", "result": 52.9, "unit": "µM"}
    ]},
    {"smiles": "CC(C)(C)c1ccc(CCc2nnc(-c3ccc(O)cc3)o2)cc1", "values": [
      {"measurement": "Activity", "setting": "Chikungunya virus [1]", "result": 103, "unit": "µM"},
      {"measurement": "Imax", "setting": "Chikungunya virus [2]", "result": 69, "unit": "%"},
      {"measurement": "EC50", "setting": "Chikungunya virus [2]", "result": 108, "unit": "µM"},
      {"measurement": "EC90", "setting": "Chikungunya virus [2]", "result": "> 103", "unit": "µM"},
      {"measurement": "selectivity ratio", "setting": "[3]", "result": 1.8},
      {"measurement": "CC50", "setting": "[4]", "result": 191, "unit": "µM"}
    ]},
    {"smiles": "Cc1ccc(-c2[nH]c3ccccc3c2/C=N/NC(=S)NCCc2ccccc2)cc1", "values": [
      {"measurement": "Activity", "setting": "Chikungunya virus [1]", "result": 2.5, "unit": "µM"},
      {"measurement": "Imax", "setting": "Chikungunya virus [2]", "result": 100, "unit": "%"},
      {"measurement": "EC50", "setting": "Chikungunya virus [2]", "result": 1.8, "unit": "µM"},
      {"measurement": "EC90", "setting": "Chikungunya virus [2]", "result": 2.5, "unit": "µM"},
      {"measurement": "selectivity ratio", "setting": "[3]", "result": 4.4},
      {"measurement": "CC50", "setting": "[4]", "result": 7.8, "unit": "µM"}
    ]},
    {"smiles": "CCOc1ccc(/C=N/NC(=O)/C=C/c2ccc(C(F)(F)F)cc2)cc1OCC", "values": [
      {"measurement": "Activity", "setting": "Chikungunya virus [1]", "result": 69, "unit": "µM"},
      {"measurement": "Imax", "setting": "Chikungunya virus [2]", "result": 75, "unit": "%"},
      {"measurement": "EC50", "setting": "Chikungunya virus [2]", "result": 48.9, "unit": "µM"},
      {"measurement": "selectivity ratio", "setting": "[3]", "result": 1.7},
      {"measurement": "CC50", "setting": "[4]", "result": 84.1, "unit": "µM"}
    ]},
    {"smiles": "Cc1ccc(-c2cn(CCc3ccccc3)nn2)cc1", "values": [
      {"measurement": "Activity", "setting": "Chikungunya virus [1]", "result": 163, "unit": "µM"},
      {"measurement": "Imax", "setting": "Chikungunya virus [2]", "result": 74, "unit": "%"},
      {"measurement": "EC50", "setting": "Chikungunya virus [2]", "result": 122, "unit": "µM"},
      {"measurement": "selectivity ratio", "setting": "[3]", "result": 1.6},
      {"measurement": "CC50", "setting": "[4]", "result": 200, "unit": "µM"}
    ]},
    {"smiles": "C/C(=N\\NC(=O)N/C=C/c1ccc(C(C)(C)C)cc1)c1ccc(C2CCCCC2)cc1", "values": [
      {"measurement": "Activity", "setting": "Chikungunya virus [1]", "result": 79, "unit": "µM"},
      {"measurement": "Imax", "setting": "Chikungunya virus [2]", "result": 90, "unit": "%"},
      {"measurement": "EC50", "setting": "Chikungunya virus [2]", "result": 42.3, "unit": "µM"},
      {"measurement": "EC90", "setting": "Chikungunya virus [2]", "result": 78.8, "unit": "µM"},
      {"measurement": "selectivity ratio", "setting": "[3]", "result": 2.9},
      {"measurement": "CC50", "setting": "[4]", "result": 123, "unit": "µM"}
    ]},
    {"smiles": "Cc1ccc(/C=N/NC(=O)N/C=C/c2ccc(C(C)(C)C)cc2)cc1", "values": [
      {"measurement": "Activity", "setting": "Chikungunya virus [1]", "result": 187, "unit": "µM"},
      {"measurement": "Imax", "setting": "Chikungunya virus [2]", "result": 50, "unit": "%"},
      {"measurement": "EC50", "setting": "Chikungunya virus [2]", "result": 246, "unit": "µM"},
      {"measurement": "EC90", "setting": "Chikungunya virus [2]", "result": "> 298", "unit": "µM"},
      {"measurement": "selectivity ratio", "setting": "[3]", "result": 0.8},
      {"measurement": "CC50", "setting": "[4]", "result": 192, "unit": "µM"}
    ]},
    {"smiles": "CC(C)(C)c1ccc(C(=O)CC(=O)N/N=C/c2ccc(O)cc2)cc1", "values": [
      {"measurement": "Activity", "setting": "Chikungunya virus [1]", "result": 7.9, "unit": "µM"},
      {"measurement": "Imax", "setting": "Chikungunya virus [2]", "result": 87, "unit": "%"},
      {"measurement": "EC50", "setting": "Chikungunya virus [2]", "result": 7.2, "unit": "µM"},
      {"measurement": "EC90", "setting": "Chikungunya virus [2]", "result": 8, "unit": "µM"},
      {"measurement": "selectivity ratio", "setting": "[3]", "result": 2.3},
      {"measurement": "CC50", "setting": "[4]", "result": 14.7, "unit": "µM"}
    ]},
    {"smiles": "C/C(=N\\NC(=O)c1nc2ccccc2[nH]1)c1ccc(C2CCCCC2)cc1", "values": [
      {"measurement": "Activity", "setting": "Chikungunya virus [1]", "result": 4.3, "unit": "µM"},
      {"measurement": "Imax", "setting": "Chikungunya virus [2]", "result": 83, "unit": "%"},
      {"measurement": "EC50", "setting": "Chikungunya virus [2]", "result": 2.6, "unit": "µM"},
      {"measurement": "selectivity ratio", "setting": "[3]", "result": 2.4},
      {"measurement": "CC50", "setting": "[4]", "result": 6.2, "unit": "µM"}
    ]}
  ]
}
